The values that follow come from patent US20110178117A1 (Merck Sharp & Dohme Corp., priority 2008, published 2011).

The target of this experiment is T1, recombinant human mGluR2 (Homo sapiens, UniProt Q14416).
T1 construct: expressed in transfected cells
In words: FLIPR Ca2+ mobilization assay, potentiation of glutamate response. In kind it is cell-based. Conditions: CHO dhfr- cells expressing human mGluR2 and Gα16; potentiation after EC20 glutamate (900 nM); read-out: Representative FLIPR EC50 Values: EC50. As to the method:
The compounds of the present invention may be tested in a fluorescence laser imaging plate reader (FLIPR) based assay. This assay is a common functional assay to monitor Ca^2+ mobilization in whole cells expressing recombinant receptor coupled with a promiscuous G-protein. CHO dhfr-cells stably expressing recombinant human mGluR2 and Gα16 loaded with Fluo-4 AM (Invitrogen, Carlsbad Calif.) are treated with dose responses of compounds and the Ca^2+ response is monitored on a FLIPR384 (Molecular Devices, Sunnydale Calif.) for agonist activity. The potentiation response is monitored after a subsequent addition of an EC20 concentration of glutamate (900 nM). The maximum calcium response at each concentration of compound for agonist or potentiation are plotted as dose responses and the curves are fitted with a four parameters logistic equation giving EC50 and Hill coefficient using the iterative non linear curve fitting software program.

As a reminder, the EC50 is the concentration giving half of the maximal effect.

T1 sequence (Q14416 19-872): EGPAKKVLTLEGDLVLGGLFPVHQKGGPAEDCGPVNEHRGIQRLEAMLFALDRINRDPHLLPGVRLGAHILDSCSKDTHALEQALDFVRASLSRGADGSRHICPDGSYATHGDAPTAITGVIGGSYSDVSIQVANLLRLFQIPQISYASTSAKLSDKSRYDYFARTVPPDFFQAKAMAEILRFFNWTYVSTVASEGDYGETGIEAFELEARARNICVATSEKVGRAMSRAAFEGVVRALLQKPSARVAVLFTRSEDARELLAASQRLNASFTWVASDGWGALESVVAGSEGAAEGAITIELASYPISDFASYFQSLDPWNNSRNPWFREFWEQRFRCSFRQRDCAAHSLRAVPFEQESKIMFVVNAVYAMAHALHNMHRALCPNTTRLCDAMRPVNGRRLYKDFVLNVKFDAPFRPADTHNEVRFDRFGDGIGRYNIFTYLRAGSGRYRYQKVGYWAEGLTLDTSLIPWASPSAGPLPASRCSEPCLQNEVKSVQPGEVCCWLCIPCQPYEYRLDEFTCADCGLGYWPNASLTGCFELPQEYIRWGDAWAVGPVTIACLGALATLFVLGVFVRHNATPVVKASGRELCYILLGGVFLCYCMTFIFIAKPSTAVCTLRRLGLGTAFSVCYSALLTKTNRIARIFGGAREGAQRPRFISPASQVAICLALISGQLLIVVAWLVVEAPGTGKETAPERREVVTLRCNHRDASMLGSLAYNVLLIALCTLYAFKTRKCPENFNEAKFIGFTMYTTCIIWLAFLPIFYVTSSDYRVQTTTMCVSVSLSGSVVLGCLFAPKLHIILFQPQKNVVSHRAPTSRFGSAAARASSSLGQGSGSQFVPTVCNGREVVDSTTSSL

Consider `CCCCCC[C@@H]1Cn2c(nc3ccccc32)O1` [Example 1-5, (2R)-2-hexyl-2,3-dihydro[1,3]oxazolo[3,2-a]benzimidazole], for which the EC50 amounted to 21 nM.

`CCCCCC[C@@H]1Cn2c(nc3cc(C#N)ccc32)O1` [Example 1-19, (2R)-2-hexyl-2,3-dihydro[1,3]oxazolo[3,2-a]benzimidazole-7-carbonitrile]: the 50% effective concentration (EC50) is 11 nM.

Regarding `COCCCCC1Cn2c(nc3ccccc32)O1` (centres unmarked) [Example 1-21, 2-(4-methoxybutyl)-2,3-dihydrobenzo[d]oxazolo[3,2-a]imidazole], the concentration giving a half-maximal response (EC50) was found to be 3120 nM.

As for `c1ccc2c(c1)nc1n2CC(CC2CCCCC2)O1` (centres unmarked) [Example 3-5, 2-(cyclohexylmethyl)-2,3-dihydro[1,3]oxazolo[3,2-a]benzimidazole], the EC50 was 2140 nM.

As for `CC(C)(C)OC(=O)N1CCCC(C2Cn3c(nc4ccccc43)O2)C1` (centres unmarked) [Example 3-7, tert-butyl 3-(2,3-dihydro[1,3]oxazolo[3,2-a]benzimidazole-2-yl)piperidine-1-carboxylate], the EC50 turned out to be 378 nM.

On to `CCCCCCC1(C)Cn2c(nc3ccccc32)O1` (centres unmarked) [Example 4-2, 2-hexyl-2-methyl-2,3-dihydro[1,3]oxazolo[3,2-a]benzimidazole], for which the half-maximal effective concentration (EC50) came to 622 nM.

For the compound `CCCCCCC1(CC)Cn2c(nc3ccccc32)O1` (centres unmarked) [Example 4-3], the EC50 worked out at 2290 nM.

Turning to “(R)-2-(6-fluorohexyl)-2,3-dihydrobenzo oxazolo[3,2-a]imidazole-7-carbonitrile [Example 1-31]”, the EC50 amounted to 68 nM.
